From US9255100B2 (BAYER INTELLECTUAL PROPERTY GMBH, priority 2010, dated 2016) come the findings set out here.

SMILES strings stand for the structures. pIC50: −log10 of the molar value.

In the first test the target is T1, N-terminally GST-tagged human full length recombinant Mps-1 kinase (Homo sapiens, UniProt P33981).
T1 construct: N-terminally GST-tagged human full length recombinant Mps-1 kinase; purchased Invitrogen, Karslruhe, Germany PV4071
T1 sequence (P33981 1-857): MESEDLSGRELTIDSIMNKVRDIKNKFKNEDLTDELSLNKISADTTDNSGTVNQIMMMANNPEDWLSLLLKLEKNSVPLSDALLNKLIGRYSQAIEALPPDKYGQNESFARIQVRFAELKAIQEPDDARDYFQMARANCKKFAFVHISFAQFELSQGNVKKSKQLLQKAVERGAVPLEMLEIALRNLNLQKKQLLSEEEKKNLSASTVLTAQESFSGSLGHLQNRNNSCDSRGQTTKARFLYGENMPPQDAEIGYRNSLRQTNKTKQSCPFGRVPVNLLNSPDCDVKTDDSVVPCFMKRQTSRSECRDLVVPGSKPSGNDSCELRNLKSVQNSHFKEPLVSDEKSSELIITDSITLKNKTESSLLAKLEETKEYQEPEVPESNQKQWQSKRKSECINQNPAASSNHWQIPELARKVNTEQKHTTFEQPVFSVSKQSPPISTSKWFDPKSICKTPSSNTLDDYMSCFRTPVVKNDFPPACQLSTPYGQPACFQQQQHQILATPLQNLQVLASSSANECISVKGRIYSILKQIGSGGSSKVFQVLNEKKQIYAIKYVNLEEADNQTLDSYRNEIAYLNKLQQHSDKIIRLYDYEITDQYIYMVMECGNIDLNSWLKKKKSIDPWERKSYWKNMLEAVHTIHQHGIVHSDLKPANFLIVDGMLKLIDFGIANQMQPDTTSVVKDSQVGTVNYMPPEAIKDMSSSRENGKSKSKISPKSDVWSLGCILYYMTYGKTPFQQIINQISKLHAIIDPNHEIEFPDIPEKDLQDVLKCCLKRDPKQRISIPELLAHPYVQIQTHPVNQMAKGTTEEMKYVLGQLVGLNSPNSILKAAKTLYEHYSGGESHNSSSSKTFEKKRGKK
The test is described as follows: Mps-1 kinase assay (TR-FRET). It is filed as biochemical. The following applies: 10 μM ATP, 1 μM peptide substrate, 60 min at 22° C., read-out: Mps1 IC50. The method, boiled down:
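GST-tagged full-length recombinant Mps-1 at about 1 nM final, adjusted per lot for linear range, phosphorylated a biotinylated peptide. Product bound Eu-anti-phospho(Ser/Thr) antibody over 1 h at 22° C and was read by TR-FRET to streptavidin-XLent. Compounds scored for kinase inhibition.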
Take `Cc1cc(-c2cnc3c(NCC4CC[S+]([O-])CC4)cc(Sc4ccccc4)nn23)ccc1C(=O)NC1CC1` (stereo not drawn) [Example 303B, N-cyclopropyl-2-methyl-4-[8-({[(trans)-1-oxidotetrahydro-2H-thiopyran-4-yl]methyl}amino)-6-(phenylsulfanyl)imidazo[1,2-b]pyridazin-3-yl]benzamide]: the negative-log IC50 (pIC50) was 9.70.

The same test, now with this note: Mps1 IC50 [nM], 10 μM ATP, 1 μM peptide substrate, 60 min at 22° C.
`Cc1cc(-c2cnc3c(NCC(C)(C)O)cc(Oc4ccncc4)nn23)ccc1C(=O)NC1CC1` [Example 332, N-cyclopropyl-4-{8-[(2-hydroxy-2-methylpropyl)amino]-6-(pyridin-4-yl-oxy)imidazo[1,2-b]pyridazin-3-yl}-2-methylbenzamide]: the IC50 was found to be 26.8 nM. `CC(C)CNc1cc(-c2cc3ccccc3o2)nn2c(-c3ccc(C(=O)NC4CC4)cc3)cnc12` [Example 127, 4-{6-(1-Benzofuran-2-yl)-8-[(2-methylpropyl)amino]imidazo[1,2-b]pyridazin-3-yl}-N-cyclopropylbenzamide]: the IC50 is 40 nM.

Consider `Cc1cc(-c2cnc3c(NC[C@@H]4CCCO4)cc(-c4ccncc4)nn23)ccc1C(=O)NC1CC1` [Example 31, N-cyclopropyl-2-methyl-4-[6-(pyridin-4-yl)-8-{[(2S)-tetrahydrofuran-2-ylmethyl]amino}imidazo[1,2-b]pyridazin-3-yl]benzamide], for which the IC50 turned out to be 1.1 nM. For `COc1ccc(Nc2cc(NCC(C)(C)O)c3ncc(-c4ccc(C(=O)NC5CC5)c(C)c4)n3n2)cc1F` [Example 353, N-cyclopropyl-4-{6-[(3-fluoro-4-methoxyphenyl)amino]-8-[(2-hydroxy-2-methylpropyl)amino]imidazo[1,2-b]pyridazin-3-yl}-2-methylbenzamide], the half-maximal inhibitory concentration (IC50) is 0.4 nM.

On to `CC(=O)NCCCNc1cc(Oc2cccc(F)c2)nn2c(-c3ccc(C(=O)NC4CC4)c(C)c3)cnc12` [Example 509, 4-[8-{[3-(acetylamino)propyl]amino}-6-(3-fluorophenoxy)imidazo[1,2-b]pyridazin-3-yl]-N-cyclopropyl-2-methyl-benzamide], for which the IC50 is 0.1 nM. On the same count and under the same terms, the result for `Cc1cc(F)cc(Nc2cc(NCC(C)(C)O)c3ncc(-c4ccc(C(=O)NC5CC5)c(C)c4)n3n2)c1` [Example 394, N-cyclopropyl-4-{6-[(3-fluoro-5-methylphenyl)amino]-8-[(2-hydroxy-2-methylpropyl)amino]imidazo[1,2-b]pyridazin-3-yl}-2-methylbenzamide] reads 0.2 nM; that for `CCNC(=O)c1ccc(-c2cnc3c(NCCN4CCOCC4)cc(Oc4ccc(OC)cc4F)nn23)cc1C` [Example 591, N-ethyl-4-[6-(2-fluoro-4-methoxyphenoxy)-8-{[2-(morpholin-4-yl)ethyl]amino}imidazo[1,2-b]pyridazin-3-yl]-2-methylbenzamide], 2.5 nM. On to `Cc1cc(-c2cnc3c(NCC(C)(C)O)cc(Nc4ccc(F)cc4Cl)nn23)ccc1C(=O)NC1CC1` [Example 405, 4-{6-[(2-chloro-4-fluorophenyl)amino]-8-[(2-hydroxy-2-methylpropyl)amino]imidazo[1,2-b]pyridazin-3-yl}-N-cyclopropyl-2-methylbenzamide], for which the IC50 was 0.2 nM. Still for that read-out and setting: then `CNC(=O)c1ccc(-c2cnc3c(NCC4CCOCC4)cc(Oc4ccc(F)c(F)c4)nn23)cc1C` [Example 567, 4-{6-(3,4-difluorophenoxy)-8-[(tetrahydro-2H-pyran-4-ylmethyl)amino]imidazo[1,2-b]pyridazin-3-yl}-N,2-dimethylbenzamide], with below 1 nM. The same measure, in the same setting: the result for `CC(=O)Nc1cccc(-c2cc(NCC(C)C)c3ncc(-c4ccc(C(=O)NC5CC5)cc4)n3n2)c1` [Example 126, 4-{6-[3-(Acetylamino)phenyl]-8-[(2-methylpropyl)amino]imidazo[1,2-b]pyridazin-3-yl}-N-cyclopropylbenzamide] reads 2 nM; that for `CNc1cc(Oc2ccc(F)c(F)c2)nn2c(-c3ccc(C(=O)NC4CC4)c(C)c3)cnc12` [Example 529, N-cyclopropyl-4-[6-(3,4-difluorophenoxy)-8-(methylamino)imidazo [1,2-b]pyridazin-3-yl]-2-methylbenzamide], 0.4 nM. Consider `Cc1cc(-c2cnc3c(NCCC(F)(F)F)cc(Nc4ccncc4O)nn23)ccc1C(=O)NC1CC1` [Example 481, N-cyclopropyl-4-{6-[(3-hydroxypyridin-4-yl)amino]-8-[(3,3,3-tri-fluoropropyl)amino]imidazo[1,2-b]pyridazin-3-yl}-2-methylbenzamide], for which the IC50 came to 3.1 nM. On to `Cc1cc(-c2cnc3c(NCC4CNC4)cc(Oc4ccccc4)nn23)ccc1C(=O)NC1CC1` [Example 315, 4-{8-[(azetidin-3-ylmethyl)amino]-6-phenoxy-imidazo[1,2-b]pyridazin-3-yl}-N-cyclopropyl-2-methylbenzamide], for which the IC50 was 0.3 nM. Regarding `Cc1cc(-c2cnc3c(NCCN(C)C)cc(Oc4ccc(F)c(F)c4)nn23)ccc1C(=O)NC1CC1` [Example 525, N-cyclopropyl-4-[6-(3,4-difluorophenoxy)-8-{[2-(dimethylamino)ethyl]amino}imidazo[1,2-b]pyridazin-3-yl]-2-methylbenzamide], the half-inhibitory concentration (IC50) worked out at 0.7 nM.

For `COc1cc(F)ccc1Nc1cc(NCCCC(F)(F)F)c2ncc(-c3ccc(C(=O)NC4CC4)c(C)c3)n2n1` [Example 457, N-cyclopropyl-4-{6-[(4-fluoro-2-methoxyphenyl)amino]-8-[(4,4,4-trifluorobutyl)amino]imidazo[1,2-b]pyridazin-3-yl}-2-methylbenzamide], the IC50 was 5.4 nM. As for `COc1ccc(C)c(Nc2cc(NCCC(F)(F)F)c3ncc(-c4ccc(C(=O)NC5CC5)c(C)c4)n3n2)c1` [Example 430, N-cyclopropyl-4-{6-[(5-methoxy-2-methylphenyl)amino]-8-[(3,3,3-trifluoropropyl)amino]imidazo[1,2-b]pyridazin-3-yl}-2-methylbenzamide], the IC50 stood at 0.3 nM. For the compound `CCCSc1cc(NCC(C)C)c2ncc(-c3ccc(C(=O)NC4CC4)c(C)c3)n2n1` [Example 201, N-cyclopropyl-2-methyl-4-{8-[(2-methylpropyl)amino]-6-(propylsulfanyl)imidazo[1,2-b]pyridazin-3-yl}benzamide], the IC50 came to 2.3 nM. With `Cc1cc(-c2cnc3c(NCCC(F)(F)F)cc(Nc4cccc(C(C)C)c4)nn23)ccc1C(=O)NC1CC1` [Example 433, N-cyclopropyl-2-methyl-4-(6-{[3-(propan-2-yl)phenyl]amino}-8-[(3,3,3-trifluoropropyl)amino]imidazo[1,2-b]pyridazin-3-yl)benzamide], the IC50 stood at 0.6 nM.

`CNc1cc(Oc2cccc(F)c2F)nn2c(-c3ccc(C(=O)NC4CC4)c(C)c3)cnc12` [Example 528, N-cyclopropyl-4-[6-(2,3-difluorophenoxy)-8-(methylamino)imidazo[1,2-b]pyridazin-3-yl]-2-methylbenzamide]: the concentration for half-maximal inhibition (IC50) came to 0.7 nM.

In the case of `CNC(=O)c1ccc(-c2cnc3c(NCCOC)cc(Oc4ccc(F)c(F)c4)nn23)cc1C` [Example 582, 4-{6-(3,4-difluorophenoxy)-8-[(2-methoxyethyl)a-mino]imidazo[1,2-b]pyridazin-3-yl}-N,2-dimethylbenzamide], the IC50 is 3.8 nM. Regarding `Cc1cc(-c2cnc3c(NCCC(F)(F)F)cc(Nc4c(O)cccc4F)nn23)ccc1C(=O)NC1CC1` [Example 478, N-cyclopropyl-4-{6-[(2-fluoro-6-hydroxyphenyl)amino]-8-[(3,3,3-tri-fluoropropyl)amino]imidazo[1,2-b]pyridazin-3-yl}-2-methylbenzamide], the IC50 worked out at 0.3 nM. Take `CC(C)CNc1cc(-c2ccc(C(N)=O)cc2)nn2c(-c3ccc(C(=O)NC4CC4)cc3)cnc12` [Example 113, 4-{6-(4-Carbamoylphenyl)-8-[(2-methylpropyl)amino]imidazo[1,2-b]pyridazin-3-yl}-N-cyclopropylbenzamide]: the IC50 was found to be 2 nM. The same measure, in the same setting: the result for `Cc1cc(-c2cnc3c(NCCC(F)(F)F)cc(Oc4cccc(F)c4N)nn23)ccc1C(=O)NC1CC1` [Example 477, 4-{6-(2-amino-3-fluoro-phenoxy)-8-[(3,3,3-tri-fluoropropyl)amino]imidazo[1,2-b]pyridazin-3-yl}-N-cyclopropyl-2-methylbenzamide] reads 0.3 nM; that for `Cc1cc(-c2cnc3c(NCCC(F)(F)F)cc(Sc4ccccc4)nn23)ccc1C(=S)NC1CC1` [Example 84, N-cyclopropyl-2-methyl-4-{6-(phenylsulfanyl)-8-[(3,3,3-trifluoropropyl)amino]imidazo[1,2-b]pyridazin-3-yl}benzenecarbothioamide], 0.3 nM.
